Laboratory results reported in patent US8153795B2, “Substituted 1-oxa-3,8-diazaspiro[4.5]-decan-2-one-compounds and the use thereof for producing drugs” (Gruenenthal GmbH, priority 2005, dated 2012).

Legend:
5-HT transporter = target: T1, 5-HT transporter (Rattus norvegicus, UniProt P31652); test: 5-HT uptake inhibition in rat brain synaptosomes (medulla and pons), [3H]-5-HT; format: biochemical
T1 construct: from tissue; host or cells: rat brain synaptosomes (P2 fraction) from medulla and pons
How it was run: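 Freshly isolated P2 synaptosomes taken from rat hypothalamus (NA) or medulla/pons (5-HT) were incubated at room temperature under O2 with [3H]-NA for 7.5 min or [3H]-5-HT for 5 min. Uptake was measured as filter-retained radioactivity by scintillation counting.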

NA transporter = target: T2, NA transporter (Rattus norvegicus, UniProt Q63380); test: noradrenalin uptake inhibition in rat brain synaptosomes (hypothalamus), [3H]-NA; format: biochemical
T2 construct: from tissue; host or cells: rat brain synaptosomes (P2 fraction) from hypothalamus
From the text: a) Method for Determining Noradrenalin and 5-HT Uptake Inhibition:
Synaptosomes from rat brain regions are freshly isolated for in vitro studies, as described in the publication “The isolation of nerve endings from brain” by E. G. Gray and V. P. Whittaker, J. Anatomy 96, pages 79-88, 1962. The corresponding literature description is hereby introduced as a reference and is deemed to be part of the disclosure.
The tissue (hypothalamus for the determination of noradrenalin uptake inhibition and medulla and pons for the determination of 5-HT uptake inhibition) is homogenised in ice-cooled 0.32 M sucrose (100 mg of tissue/1 mL) in a glass homogeniser with Teflon pestle using five complete up and down strokes at 840 revolutions/minute.
The homogenate is centrifuged at 4° C. for 10 minutes at 1000 g. After subsequent centrifugation at 17000 g for 55 minutes, the synaptosomes (P2 fraction) are obtained, which are resuspended in 0.32 M […] (0.5 mL/100 mg of original weight).
The particular uptake is measured in a 96-well microtitre plate. The volume is 250 μl and the incubation proceeds at room temperature (approx. 20-25° C.) under an O2 atmosphere.
The incubation time is 7.5 minutes for [^3H]-NA and 5 minutes for [^3H]-5-HT. The 96 samples are then filtered through a Unifilter GF/B® microtitre plate (Packard) and washed with 200 mL of incubated buffer using a “Brabdel MPXRI-96T Cell-Harvester”. The Unifilter GF/B plate is dried for 1 hour at 55° C. The plate is then sealed with a Back Seal® (Packard) and 35 μl of scintillation fluid are added per well (Ultima Gold®, Packard). After sealing with a top Seal® (Packard) and establishing an equilibrium (around 5 hours), radioactivity is determined in a “Trilux 1450 Microbeta” (Wallac).
The quantity of protein used in the above determination corresponds to the values known from the literature, as for example described in “Protein measurement with the folin phenol reagent”, Lowry et al., J. Biol. Chem., 193, 265-275, 1951.
A detailed description of the method may additionally be found in the literature, for example in M. Ch. Frink, H.-H. Hennies, W. Engelberger, M. Haurand and B. Wilffert (1996) Arzneim.-Forsch./Drug Res. 46 (III), 11, 1029-1036.

T2 sequence (Q63380 1-617): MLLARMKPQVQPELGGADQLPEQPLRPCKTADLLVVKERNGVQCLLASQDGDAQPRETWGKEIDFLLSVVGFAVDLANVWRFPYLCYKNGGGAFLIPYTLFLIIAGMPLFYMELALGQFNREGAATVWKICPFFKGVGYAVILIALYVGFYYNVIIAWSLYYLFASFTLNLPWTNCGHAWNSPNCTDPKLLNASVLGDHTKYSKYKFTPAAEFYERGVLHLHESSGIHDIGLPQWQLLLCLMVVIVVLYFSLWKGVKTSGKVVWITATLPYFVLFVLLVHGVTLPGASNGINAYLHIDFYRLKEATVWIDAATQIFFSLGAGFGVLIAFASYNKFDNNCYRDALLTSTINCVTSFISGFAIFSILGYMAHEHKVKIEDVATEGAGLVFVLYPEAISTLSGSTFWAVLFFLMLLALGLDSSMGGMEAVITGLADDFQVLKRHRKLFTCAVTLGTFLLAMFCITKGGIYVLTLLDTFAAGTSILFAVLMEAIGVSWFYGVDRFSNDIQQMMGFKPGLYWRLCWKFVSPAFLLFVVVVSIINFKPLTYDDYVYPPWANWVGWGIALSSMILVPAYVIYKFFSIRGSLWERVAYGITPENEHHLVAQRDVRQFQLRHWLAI
T1 sequence (P31652 whole entry): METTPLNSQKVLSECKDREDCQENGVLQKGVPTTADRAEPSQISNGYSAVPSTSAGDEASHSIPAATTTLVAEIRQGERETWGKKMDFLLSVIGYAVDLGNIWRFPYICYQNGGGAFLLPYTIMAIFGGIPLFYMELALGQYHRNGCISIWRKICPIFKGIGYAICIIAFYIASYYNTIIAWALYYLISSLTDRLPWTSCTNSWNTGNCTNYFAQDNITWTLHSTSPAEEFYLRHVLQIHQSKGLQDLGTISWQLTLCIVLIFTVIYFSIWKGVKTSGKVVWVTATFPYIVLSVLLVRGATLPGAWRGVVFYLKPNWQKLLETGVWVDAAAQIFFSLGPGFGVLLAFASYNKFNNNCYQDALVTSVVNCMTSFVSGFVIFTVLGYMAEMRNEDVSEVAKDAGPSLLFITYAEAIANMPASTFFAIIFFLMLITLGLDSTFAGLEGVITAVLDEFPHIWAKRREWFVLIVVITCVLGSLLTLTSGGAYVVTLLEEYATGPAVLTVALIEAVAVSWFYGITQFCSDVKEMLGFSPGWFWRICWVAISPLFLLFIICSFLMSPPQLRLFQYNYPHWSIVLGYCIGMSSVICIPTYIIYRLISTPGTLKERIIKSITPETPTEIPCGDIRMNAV

| SMILES | inhibition at 10 µM (5-HT transporter) [%] | inhibition at 10 µM (NA transporter) [%] |
| --- | --- | --- |
| CC(=O)c1cccc(NC(=S)N2CCC3(CC2)CN(Cc2cc(C)cc(C)c2)C(=O)O3)c1 [Example 7, 3-(3,5-dimethylbenzyl)-2-oxo-1-oxa-3,8-diazaspiro[4.5]decane-8-carbothioic acid (3-acetylphenyl)amide] | 55 | 50 |
| O=C1OC2(CCN(C(=S)Nc3cc(Cl)ccc3Cl)CC2)CN1Cc1cccc(Br)c1 [Example 2, 3-(3-bromobenzyl)-2-oxo-1-oxa-3,8-diazaspiro[4.5]decane-8-carbothioic acid (2,5-dichlorophenyl)amide] | 60 | 64 |
| Cc1ccc(CN2CC3(CCN(C(=O)Nc4ccc(C)c([N+](=O)[O-])c4)CC3)OC2=O)cc1 [Example 27, 3-(4-methylbenzyl)-2-oxo-1-oxa-3,8-diazaspiro[4.5]decane-8-carboxylic acid (4-methyl-3-nitrophenyl)amide] | 62 | 68 |
| COc1ccc([N+](=O)[O-])cc1CN1CC2(CCN(C(=O)NC(C)c3cccc4ccccc34)CC2)OC1=O (centres unmarked) [Example 63, 3-(2-methoxy-5-nitrobenzyl)-2-oxo-1-oxa-3,8-diazaspiro[4.5]decane-8-carboxylic acid (1-naphthalen-1-yl-ethyl)amide] | 84 | 41 |
| COc1ccc(-c2noc(CN3CCC4(CC3)CN(Cc3ccc(F)c(F)c3)C(=O)O4)n2)cc1 [Example 77, 3-(3,4-difluorobenzyl)-8-[3-(4-methoxyphenyl)-[1,2,4]oxadiazol-5-ylmethyl]-1-oxa-3,8-diazaspiro[4.5]decan-2-one] | 50 | 64 |
| COc1cc(OC)cc(C(=O)N2CCC3(CC2)CN(Cc2cccc(Br)c2)C(=O)O3)c1 [Example 137, 3-(3-bromobenzyl)-8-(3,5-dimethoxybenzoyl)-1-oxa-3,8-diazaspiro[4.5]decan-2-one] | 74 | 84 |
| O=C(NCc1ccc(F)cc1)N1CCC2(CC1)CN(Cc1ccc(F)c(F)c1)C(=O)O2 [Example 28, 3-(3,4-difluorobenzyl)-2-oxo-1-oxa-3,8-diazaspiro[4.5]decane-8-carboxylic acid 4-fluorobenzylamide] | 45 | 53 |
| COc1cccc(NC(=O)N2CCC3(CC2)CN(Cc2ccc(F)c(F)c2)C(=O)O3)c1 [Example 35, 3-(3,4-difluorobenzyl)-2-oxo-1-oxa-3,8-diazaspiro[4.5]decane-8-carboxylic acid (3-methoxyphenyl)amide] | 56 | 63 |
| O=C(CN1CCC2(CC1)CN(Cc1ccccc1F)C(=O)O2)Nc1nc(-c2ccccc2)cs1 [Example 86, 2-[3-(2-fluorobenzyl)-2-oxo-1-oxa-3,8-diazaspiro[4.5]dec-8-yl]-N-(4-phenylthiazol-2-yl)acetamide] | 56 | 79 |
| N#Cc1ccc(CN2CC3(CCN(Cc4cccc([N+](=O)[O-])c4)CC3)OC2=O)cc1 [Example 89, 4-[8-(3-nitrobenzyl)-2-oxo-1-oxa-3,8-diazaspiro[4.5]dec-3-ylmethyl]benzonitrile] | 63 | 57 |
| N#Cc1cccc(NC(=O)N2CCC3(CC2)CN(Cc2ccccc2)C(=O)O3)c1 [Example 33, 3-benzyl-2-oxo-1-oxa-3,8-diazaspiro[4.5]decane-8-carboxylic acid (3-cyanophenyl)amide] | 59 | 93 |
| O=C1OC2(CCN(Cc3ccc([N+](=O)[O-])cc3)CC2)CN1Cc1ccc(F)c(F)c1 [Example 74, 3-(3,4-difluorobenzyl)-8-(4-nitrobenzyl)-1-oxa-3,8-diazaspiro[4.5]decan-2-one] | 66 | 57 |
| C=CCNC(=S)N1CCC2(CC1)CN(Cc1ccc3ccccc3c1)C(=O)O2 [Example 10, 3-naphthalen-2-ylmethyl-2-oxo-1-oxa-3,8-diazaspiro[4.5]decane-8-carbothioic acid allylamide] | 50 | 78 |
| O=C(Nc1cccc(F)c1)N1CCC2(CC1)CN(Cc1ccccc1)C(=O)O2 [Example 60, 3-benzyl-2-oxo-1-oxa-3,8-diazaspiro[4.5]decane-8-carboxylic acid (3-fluorophenyl)amide] | – | 58 |
| N#Cc1cccc(CN2CC3(CCN(C(=S)NCC4CCCCC4)CC3)OC2=O)c1 [Example 19, 3-(3-cyanobenzyl)-2-oxo-1-oxa-3,8-diazaspiro[4.5]decane-8-carbothioic acid cyclohexylmethylamide] | 69 | 48 |
| CCOC(=O)CC(C)NC(=S)N1CCC2(CC1)CN(Cc1cccc(Br)c1)C(=O)O2 (centres unmarked) [Example 9, 3-{[3-(3-bromobenzyl)-2-oxo-1-oxa-3,8-diazaspiro[4.5]decane-8-carbothioyl]amino}butanoic acid ethyl ester] | – | 81 |
| CC(=O)c1cccc(NC(=S)N2CCC3(CC2)CN(Cc2ccccc2F)C(=O)O3)c1 [Example 20, 3-(2-fluorobenzyl)-2-oxo-1-oxa-3,8-diazaspiro[4.5]decane-8-carbothioic acid (3-acetylphenyl)amide] | – | 48 |
| O=C1OC2(CCN(C(=S)Nc3ccccc3)CC2)CN1Cc1ccccc1-c1ccccc1 [Example 18, 3-biphenyl-2-ylmethyl-2-oxo-1-oxa-3,8-diazaspiro[4.5]decan-8-carbothioic acid phenylamide] | – | 55 |
| O=C(NCCc1ccccc1)N1CCC2(CC1)CN(Cc1ccccc1C(F)(F)F)C(=O)O2 [Example 49, 2-oxo-3-(2-trifluoromethylbenzyl)-1-oxa-3,8-diazaspiro[4.5]decane-8-carboxylic acid phenethylamide] | – | 48 |
| COCCNC(=S)N1CCC2(CC1)CN(Cc1cccc(Br)c1)C(=O)O2 [Example 5, 3-(3-bromobenzyl)-2-oxo-1-oxa-3,8-diazaspiro[4.5]decane-8-carbothioic acid (2-methoxyethyl)amide] | – | 70 |
| O=C(Nc1ccc(Cl)c(C(F)(F)F)c1)N1CCC2(CC1)CN(Cc1ccccc1)C(=O)O2 [Example 37, 3-benzyl-2-oxo-1-oxa-3,8-diazaspiro[4.5]decane-8-carboxylic acid (4-chloro-3-trifluoromethylphenyl)amide] | – | 47 |
| Cc1ccc(NC(=O)N2CCC3(CC2)CN(Cc2ccc(F)c(F)c2)C(=O)O3)cc1[N+](=O)[O-] [Example 34, 3-(3,4-difluorobenzyl)-2-oxo-1-oxa-3,8-diazaspiro[4.5]decane-8-carboxylic acid (4-methyl-3-nitrophenyl)amide] | – | 41 |
| Cc1ccc(CN2CC3(CCN(CC(=O)Nc4ccc(S(=O)(=O)Nc5cc(Cl)cc(Cl)c5)cc4)CC3)OC2=O)cc1 [Example 75, N-[4-(3,5-dichlorophenylsulfamoyl)phenyl]-2-[3-(4-methylbenzyl)-2-oxo-1-oxa-3,8-diazaspiro[4.5]dec-8-yl]acetamide] | – | 67 |
| CCOc1ccc(NC(=O)N2CCC3(CC2)CN(Cc2ccccc2F)C(=O)O3)cc1 [Example 24, 3-(2-fluorobenzyl)-2-oxo-1-oxa-3,8-diazaspiro[4.5]decane-8-carboxylic acid (4-ethoxyphenyl)amide] | – | 58 |
